Target: USP46/UAF1/WDR20 (Homo sapiens, UniProt P62068)
Assay: biochemical
Design: Ubiquigent DUB profiler selectivity panel, remaining enzyme activity as % of control
Conditions: read-out: % of control remaining
In short: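 In YFP-PRKN-overexpressing hTERT-RPE1 cells, 1 h antimycin A plus oligomycin A (1 μM each) with CMPD-39, then Western blot of TOMM20 ubiquitylation. Target engagement: 2 h compound, then 10 min HA-Ub-PA at 37°C, read as USP30 shift. DUB panel (>40 enzymes) screened at 1-100 μM.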

Sequence of USP46/UAF1/WDR20 (P62068 whole entry): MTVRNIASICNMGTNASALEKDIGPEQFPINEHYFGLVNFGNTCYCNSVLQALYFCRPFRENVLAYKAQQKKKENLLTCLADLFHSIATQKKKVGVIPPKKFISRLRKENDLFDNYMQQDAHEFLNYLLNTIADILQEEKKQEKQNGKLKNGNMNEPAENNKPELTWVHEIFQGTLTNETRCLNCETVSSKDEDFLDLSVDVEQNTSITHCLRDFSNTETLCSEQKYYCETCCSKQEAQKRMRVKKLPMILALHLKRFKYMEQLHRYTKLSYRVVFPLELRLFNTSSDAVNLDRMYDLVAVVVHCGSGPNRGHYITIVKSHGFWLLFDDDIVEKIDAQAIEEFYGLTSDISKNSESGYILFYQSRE
Sequence of USP46/UAF1/WDR20 (Q8TAF3 whole entry partner): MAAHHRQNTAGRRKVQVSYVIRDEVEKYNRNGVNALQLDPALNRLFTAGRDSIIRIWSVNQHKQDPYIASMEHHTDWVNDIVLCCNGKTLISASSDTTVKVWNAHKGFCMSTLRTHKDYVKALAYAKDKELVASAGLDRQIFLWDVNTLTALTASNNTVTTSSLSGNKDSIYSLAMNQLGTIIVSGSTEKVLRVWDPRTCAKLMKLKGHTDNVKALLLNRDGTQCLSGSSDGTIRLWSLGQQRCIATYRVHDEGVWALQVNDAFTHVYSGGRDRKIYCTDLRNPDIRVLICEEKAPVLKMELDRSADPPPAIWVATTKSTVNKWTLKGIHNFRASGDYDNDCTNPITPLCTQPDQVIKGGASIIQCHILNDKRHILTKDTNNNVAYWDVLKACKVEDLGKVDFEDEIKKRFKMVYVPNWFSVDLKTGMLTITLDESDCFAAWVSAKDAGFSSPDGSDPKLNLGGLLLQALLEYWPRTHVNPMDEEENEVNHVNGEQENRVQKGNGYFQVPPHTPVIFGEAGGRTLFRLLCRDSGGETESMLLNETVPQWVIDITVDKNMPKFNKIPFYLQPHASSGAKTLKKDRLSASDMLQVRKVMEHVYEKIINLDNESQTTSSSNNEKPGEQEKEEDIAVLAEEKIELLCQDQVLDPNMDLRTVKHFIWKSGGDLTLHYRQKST
Sequence of USP46/UAF1/WDR20 (Q8TBZ3 whole entry partner): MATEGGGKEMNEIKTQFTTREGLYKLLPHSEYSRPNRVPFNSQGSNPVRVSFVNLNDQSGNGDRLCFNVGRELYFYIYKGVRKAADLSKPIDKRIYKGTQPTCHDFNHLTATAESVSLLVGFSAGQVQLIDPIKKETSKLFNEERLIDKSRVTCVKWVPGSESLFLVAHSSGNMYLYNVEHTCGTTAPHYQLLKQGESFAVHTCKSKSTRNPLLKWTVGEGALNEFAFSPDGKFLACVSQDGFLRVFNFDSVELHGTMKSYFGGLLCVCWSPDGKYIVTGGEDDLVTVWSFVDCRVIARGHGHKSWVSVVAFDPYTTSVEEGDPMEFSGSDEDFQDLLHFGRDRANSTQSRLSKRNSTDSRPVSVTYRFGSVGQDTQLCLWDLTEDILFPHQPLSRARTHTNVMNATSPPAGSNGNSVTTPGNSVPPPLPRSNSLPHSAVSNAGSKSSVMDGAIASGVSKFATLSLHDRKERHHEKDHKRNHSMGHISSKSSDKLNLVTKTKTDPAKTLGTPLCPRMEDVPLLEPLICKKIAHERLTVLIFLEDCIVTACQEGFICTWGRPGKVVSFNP

A remaining activity at 1 µM of 110%, a remaining activity at 10 µM of 97.5% and a remaining activity at 100 µM of 97.4% were found for `CC(C)(C)NS(=O)(=O)c1ccc(NC(=O)[C@H](Cc2ccccc2)NC(=O)c2ccc(F)cc2)cc1` [compound 39, CMPD-39] in this work.
